According to patent US12384765B2, “Catecholamine prodrugs for use in the treatment of Parkinson's Disease” (H. Lundbeck A/S, priority 2019, dated 2025):
Entries after “also recorded” stand apart in the source; their conditions may differ.

Assays:
[1] = Conversion of compounds in human plasma; type: in vitro ADME
Experimental: Frozen human plasma was thawed and then centrifuged at 3200×g for 5 min to remove debris. The pH value of the supernatant was then measured and adjusted to 7.4±0.1 by adding 1% phosphoric acid or 1 N sodium hydroxide. 2 μL of dosing solution (50 μM for test compounds and 100 μM for positive control (propantheline bromide)) was mixed with 98 μL of blank plasma to achieve 1 μM test compound and 2 μM positive control of final concentration. The mixture was incubated, and samples were withdrawn from the incubations at the pre-determined time points of 0, 0.5, 1, 2, 4 and 6 hr (in duplicate) at 37° C. in water bath. At each corresponding time point 10 μL inhibitor and 20 μL ascorbic acid and 2 μL formic acid (20%) are added, and then added 400 μL of “stop solution” (200 ng/mL tolbutamide plus 200 ng/mL labetalol in 50% ACN/MeOH) to precipitate protein. The substance was mixed thoroughly and thereafter Centrifugated at 4,000 rpm for 20 minutes. Then an aliquot of supernatant (50 μL) was transferred from each well to a sample plate and mixed with 100 μL ultrapure water. The plate was shaked at 800 rpm for about 10 minutes before submitting to LC-MS/MS analysis.
(§1) Mass spectrometer (LC-MS/MS) Shimadzu LC 20-AD Shimadzu UHPLC API 4000. Analytical column ACQUITY UPLC® BEH Phenyl 1.7 μm 2.1×50 mm. Mobile phase A: 0.1% Formic Acid in Water. Mobile phase B: 0.1% Formic Acid in Acetonitrile. […] Flow rate 0.7 mL/min.

human hepatocytes [2] = experiment: Conversion of compounds in human hepatocytes; type: in vitro ADME; conditions: 1 μM compound, 37° C.; nd: not detected
Experimental: Incubations were conducted in 96-well plates at 1 μM compound concentration in duplicate. The hepatocyte cell concentration was 0.5×10^6 cells/mL used for final incubation at 37° C. in an incubator of 5% CO2 95% relative humidity. The medium control samples were included at 0 and 60 minutes in the absence of cells. The total organic concentration was 1% (DMSO 0.1%) in the final incubation. The controls, (7-ethoxycoumarin and 7-hydroxycoumarin) was incubated parallel at 3 μM. 2 μL of dosing solution (50 μM for test compounds and 100 μM for positive control) was mixed with 98 μL of 100 mM PBS to achieve 1 μM test compound and 2 μM positive control of final concentration. The mixture was incubated, and samples were withdrawn from the incubations at pre-determined time points of 0, 0.5, 1, 2, 4 and 6 hr (in duplicate) at 37° C. in water bath. To each sample, 10 μL inhibitor and 20 μL ascorbic acid and 2 μL formic acid (20%) were added followed by 400 μL of stop solution (200 ng/mL tolbutamide plus 200 ng/mL labetalol in 50% ACN/MeOH). The substance was mixed thoroughly and thereafter centrifuged at 4,000 rpm for 20 minutes. An aliquot of supernatant (50 μL) from each well were transferred to a sample plate and mixed with 100 μL ultrapure water. The plate was shaked at 800 rpm for about 10 minutes before submitting to LC-MS/MS analysis.
as §1

[3] = PK experiments in rats, plasma compound (I) after oral dosing; type: in vivo, Han Wistar rats; conditions: for plasma concentrations of compound (I) after oral dosing (in words): oral dosing to Wistar rats
Experimental: Plasma was placed on water-ice following collection. Final storage at approximately −70° C.
Mobile phase B: Acetonitrile. […] Flow rate 0.5 mL/min.
The rats had unrestricted access to the diet.
Mobile phase B: Acetonitrile+0.2% formic acid. […] Flow rate 0.3 mL/min.
The rats received a standard laboratory diet Teklad 2014C. The rats had unrestricted access to the diet.

human 5-HT2B receptor [4] = molecular target: T1, human 5-HT2B receptor (Homo sapiens (Human), UniProt P41595); experiment: 5-HT2B binding assay; conditions: [125I](±)DOI, read-out: 5-HT2B binding affinity (% inhibition of control, specific binding)
T1 sequence (P41595 whole entry): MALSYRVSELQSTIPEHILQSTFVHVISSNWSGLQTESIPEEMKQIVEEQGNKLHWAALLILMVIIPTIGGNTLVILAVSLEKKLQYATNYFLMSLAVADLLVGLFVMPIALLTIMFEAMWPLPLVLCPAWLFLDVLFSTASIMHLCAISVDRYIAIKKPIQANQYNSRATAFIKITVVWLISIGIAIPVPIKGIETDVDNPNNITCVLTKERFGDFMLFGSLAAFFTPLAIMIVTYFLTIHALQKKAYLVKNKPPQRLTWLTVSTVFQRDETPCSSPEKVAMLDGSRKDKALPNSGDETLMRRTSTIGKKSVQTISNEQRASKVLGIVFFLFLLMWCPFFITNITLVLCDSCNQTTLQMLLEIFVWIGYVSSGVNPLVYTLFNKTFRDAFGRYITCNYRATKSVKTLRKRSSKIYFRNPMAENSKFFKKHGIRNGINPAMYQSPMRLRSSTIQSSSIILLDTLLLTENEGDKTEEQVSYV
Experimental: Evaluation of the affinity of said compounds for the human 5-HT2B receptor was determined in a radioligand binding assay at Eurofins/Cerep (France). Membrane homogenates prepared from CHO cells expressing the human 5HT2B receptor were incubated for 60 min at room temperature with 0.2 nM [125I](±)DOI (1-(4-iodo-2,5-dimethoxyphenyl)propan-2-amine) in the absence or presence of the test compound in a buffer containing 50 mM Tris-HCl (pH 7.4), 5 mM MgCl2, 10 μM pargyline and 0.1% ascorbic acid. Nonspecific binding is determined in the presence of 1 μM (±)DOI. Following incubation, the samples were filtered rapidly under vacuum through glass fiber filters (GF/B, Packard) presoaked with 0.3% polyethyleneimine (PEI) and rinsed several times with ice-cold 50 mM Tris-HCl using a 96-sample cell harvester (Unifilter, Packard). The filters were dried and counted for radioactivity in a scintillation counter (Topcount, Packard) using a scintillation cocktail (Microscint 0, Packard). The results are expressed as a percent inhibition of the control radioligand specific binding. The standard reference compound was (±)DOI, which was tested in each experiment at several concentrations to obtain a competition curve from which its IC50 is calculated.

[5] = WO 2010/097092; cited from earlier work
[6] = Liu et al.; cited from earlier work
human 5-HT2B receptor [7] = molecular target: T1, human 5-HT2B receptor; experiment: 5-HT2B agonist activity assay (IP1 production, HTRF); type: cell-based
Experimental: Evaluation of the agonist activity of compounds (I), (Ia), (Ib), (Ic), (Ia-iab), compound (2), compound (9), compound (15), compound (27), A2, A3, and A7 at the human 5-HT2B receptor was performed by Eurofins/Cerep (France) measuring the compound effects on inositol monophosphate (IP1) production using the HTRF detection method. Briefly, the human 5-HT2B receptor was expressed in transfected CHO cells. The cells were suspended in a buffer containing 10 mM Hepes/NaOH (pH 7.4), 4.2 mM KCl, 146 mM NaCl, 1 mM CaCl2, 0.5 mM MgCl2, 5.5 mM glucose and 50 mM LiCl, then distributed in microplates at a density of 4100 cells/well and incubated for 30 minutes at 37° C. in the presence of buffer (basal control), test compound or reference agonist. For stimulated control measurement, separate assay wells contained 1 μM 5-HT. Following incubation, the cells were lysed and the fluorescence acceptor (fluorophen D2-labeled IP1) and fluorescence donor (anti-IP1 antibody labeled with europium cryptate) were added. After 60 minutes at room temperature, the fluorescence transfer was measured at lambda(Ex) 337 nm and lambda(Em) 620 and 665 nm using a microplate reader (Rubystar, BMG). The IP1 concentration was determined by dividing the signal measured at 665 nm by that measured at 620 nm (ratio). The results were expressed as a percent of the control response to 1 μM 5-HT. The standard reference agonist was 5-HT, which was tested in each experiment at several concentrations to generate a concentration-response curve from which its EC50 value is calculated as described above for dopamine functional assays.

rat hepatocytes = conditions: WO 2010/097092; cited from earlier work
human hepatocytes [8] = conditions: WO 2010/097092; cited from earlier work
[9] = in man after oral dosing; cited from earlier work
[10] = intravenous (IV), PD patients; cited from earlier work
[11] = In vitro dopaminergic activity (data not shown)
male CD rats = experiment: Rat locomotor activity (hyperactivity) assay, open field; type: in vivo
Experimental: In total, 206 male CD rats (Charles River, Germany) weighing 200-250 grams (165-190 grams upon arrival) were used in the study. Animals were housed at a standard temperature (22±1° C.) and in a light-controlled environment (lights on from 7 am to 8 pm) with ad libitum access to food and water. The experiment described below was performed in accordance with the standard operating procedures of Charles River Discovery Research Services Finland Ltd. and in accordance with the national Animal Experiment Board of Finland (Elainkoelautakunta, ELLA) authority on animal testing.
The test device is a square Plexiglass-arena (measuring 40×40×40 cm), in which the movement paths of the rats are recorded by an activity monitor (Med. Associates Inc.). Before the test period is initiated, rats are habituated to their test cage for 60 minutes. Upon completion of habituation, animals were treated with either compound or vehicle and placed back into the open field apparatus. The main test parameter measured is ambulatory distance (recorded in 5 minute segments). Overall time of measurement after receiving initial treatment was 360 minutes. Total follow up period in the study was 420 minutes, including 60 minutes of habituation.
Blood samples were taken and processed and analyzed as described under PK experiments in rats in Example 3.

[12] = Liu et al., Bioorganic Med. Chem. (2008); cited from earlier work
[13] = (Id-ia) 10 to 300 μg/kg p.o., apomorphine 3 mg/kg s.c., pramipexole 0.3 mg/kg s.c.

CCCN1CCC[C@@H]2Cc3c(ccc(O[C@@H]4O[C@H](C(=O)O)[C@@H](O)[C@H](O)[C@H]4O)c3O)C[C@H]21 [(Id-ib), (2S,3S,4S,5R,6S)-3,4,5-tri hydroxy-6-(((4aR,10aR)-6-hydroxy-1-propyl-1,2,3,4,4a,5,10,10a-octahydrobenzo[g]quinolin-7-yl)oxy)tetrahydro-2H-pyran-2-carboxylic acid]
Observed metabolite, Incubation in human plasma ([1]; 1 μM test compound, 37° C., 0-6 hr, nd: not detected): Compound (I)
Observed metabolite, Incubation in human hepatocytes (human hepatocytes [2]): Compound (I)
Observed metabolite, In vivo PK study after oral dosing (rats) [3]: Compound (I)
inhibition at 10 µM (human 5-HT2B receptor [4]): -39%

CCCN1CCC[C@@H]2CC3=C(CCCC3=O)C[C@H]21 [(Ia), reference compound]
plasma concentrations of compound (I) after oral dosing (in words) [3]: early and high peak plasma concentrations
in vivo pharmacology in animal models relevant for Parkinson's Disease [5]: effective
conversion to compound (I) in rats [6]: converted to the active compound (I)
EC50 (human 5-HT2B receptor [7]; IP1 production, transfected CHO cells): > 6 µM
activity at 30 µM (human 5-HT2B receptor [7]; read-out: 5-HT2B agonist activity, percent of control response): 58%

CCCN1CCC[C@@H]2Cc3c(ccc4c3OCO4)C[C@H]21 [(Ib), (6aR,10aR)-7-propyl-6,6a,7,8,9,10,10a,11-octahydro-[1,3]dioxolo[4′,5′:5,6]benzo[1,2-g]quinoline]
conversion to compound (I) in rat hepatocytes (rat hepatocytes): demonstrated
plasma concentrations of compound (I) after oral dosing (in words) [3]: early and high peak plasma concentrations
in vivo pharmacology in animal models relevant for Parkinson's Disease [5]: effective
conversion to compound (I) in human hepatocytes (human hepatocytes [8]): demonstrated
5-HT2B receptor agonism (in words) (human 5-HT2B receptor [7]): agonist

CCCc1cc2c(s1)CN[C@@H]1CCc3cc(OC(C)=O)c(OC(C)=O)cc3[C@@H]21 [Adrogolide, adrogolide]
oral bioavailability [9]: ~4%
antiparkinson efficacy [10]: comparable to that of L-DOPA

CCCN1CCC[C@@H]2Cc3c(ccc(O)c3O[C@@H]3O[C@H](C(=O)O)[C@@H](O)[C@H](O)[C@H]3O)C[C@H]21 [(Id-ia), (2S,3S,4S,5R,6S)-3,4,5-trihydroxy-6-(((4aR,10aR)-7-hydroxy-1-propyl-1,2,3,4,4a,5,10,10a-octahydrobenzo[g]quinolin-6-yl)oxy)tetrahydro-2H-pyran-2-carboxylic acid]
in vitro dopaminergic activity [11]: no in vitro dopaminergic activity
Observed metabolite, In vivo PK study after oral dosing (rats) [3]: Compound (I)
effect on locomotor activity (male CD rats; [13]): dopaminergic effect; also recorded: increases locomotor activity
start of locomotor effect post-administration (male CD rats; [13]): ~2 h
end of locomotor effect post administration (male CD rats; (Id-ia) 10 to 300 μg/kg p.o., apomorphine 3 mg/kg s.c., recording until 415-minute time point): lasting until the end of recording
total distance travelled (male CD rats; relative to vehicle, FIG. 4): significantly increased activity

CCCN1CCC[C@@H]2Cc3c(ccc(O)c3O)C[C@H]21 [(I), (4aR,10aR)-1-Propyl-1,2,3,4,4a,5,10,10a-octahydro-benzo[g]quinoline-6,7-diol]
half-life in the plasma assay ([1]; human plasma): short half-life
in vivo pharmacology in animal models relevant for Parkinson's Disease [5]: effective
oral bioavailability (in words) [12]: low oral bioavailability

CCCN[C@H]1CCc2nc(N)sc2C1 [Pramipexole, pramipexole, reference compound]
effect on locomotor activity (male CD rats; [13]): increase in activity
